Results as given in article PMC8044192 (Scientific Reports, 2021).

Assays:
[1] = Study 1: body weight and food intake in DIO mice, linagliptin monotreatment for 14 days; assay type: in vivo, C57BL/6J mice; settings: linagliptin 3 mg/kg/day s.c.
Procedure: (§1) The Danish Animal Experiments Inspectorate approved all experiments which were conducted using internationally accepted principles for the use of laboratory animals (license #2013-15-2934-00784). The study was carried out in compliance with the ARRIVE guidelines. 99 C57BL/6J mice were from Janvier Labs (Le Genest Saint Isle, France) and housed in a controlled environment (12 h light/dark cycle, lights on at 3 AM, 21 ± 2 °C, humidity 50 ± 10%). Each animal was identified by an implantable subcutaneous microchip (PetID Microchip, E-vet, Haderslev, Denmark). Mice arrived at 5 weeks of age and were made diet-induced obese (DIO) by offering ad libitum access to tap water and high-fat diet (5.15 kcal/g; 60 kcal-% fat, 20 kcal-% carbohydrate, 20% kcal-% protein; D12492, Ssniff, Soest, Germany) for 26–27 weeks before study start. The mice were kept on the diet throughout the study.
(§2) DIO mice were randomized into individual treatment groups (n = 9–10 per group) based on body weight measured 3 days prior to initiation of drug treatment. Vehicle was phosphate-buffered saline added 5% mannitol. […] All drugs were administered once daily at 1 h before lights off. The first dose was given on day 0. Body weight and food intake was monitored daily during the treatment period.

[2] = Linagliptin exposure in plasma by LC-MS/MS; assay type: in vivo, C57BL/6J mice; settings: DIO mice, 3 mg/kg/day s.c. once daily, day 14, before (approx. 24 h after previous dose) and 4 h after last dose
[3] = Plasma analytes in DIO mice (active GLP-1, GIP, insulin, metabolic markers); assay type: in vivo, C57BL/6J mice; settings: study 1, linagliptin 3 mg/kg/day s.c., 4 h post-dosing
Procedure: Terminal cardiac blood samples were collected in EDTA-coated tubes with (for GLP-1 and GIP analysis) or without (for DPP-IV enzyme analysis) 10 µl DPP-IV inhibitor/ml blood (Millipore, Copenhagen, Denmark) prior to sampling. Plasma was separated by centrifugation (3000 × g for 10 min at 4 °C) and immediately frozen on dry ice and stored at − 80 °C until further analysis. DPP-IV enzyme catalytic activity was determined as reported previously. Active GLP-1 and GIP levels were assessed by ELISA (#K150JWC, MesoScale Discovery, Rockville, MD; #27702, IBL, Fujioka, Japan) according to the manufacturer’s instructions. Plasma levels of insulin were measured by ELISA (#K152BZC, MesoScale Discovery, Rockville, MD), according to the manufacturer’s instructions.

[4] = Study 2: body weight and food intake in DIO mice, 14 days of treatment then 6 days of wash-out; assay type: in vivo, C57BL/6J mice; settings: linagliptin 3 mg/kg or Y2R agonist 3 or 30 nmol/kg s.c. once daily for 14 days
Procedure: as §1, §2

[5] = Oral glucose tolerance test in DIO mice; assay type: in vivo, C57BL/6J mice; settings: study 2; treatment day 12; 4 h fast; 2 g/kg oral glucose; blood glucose 0–240 min; compared to vehicle dosing
Procedure: In study 2, an oral glucose tolerance test (OGTT) was performed one week prior to treatment start (day -7) and on treatment day 12. Animals were fasted for 4 h prior to OGTT. At t = 0 an oral glucose load (2 g/kg glucose; 200 mg/mL, Fresenius Kabi, Sweden) was administered via a gastrically placed tube. Blood samples for measuring blood glucose were collected from the tail vein at t = 0, 15, 30, 60, 120, 180, 240 min. A pre-OGTT blood sample was collected at − 60 min (OGTT on day − 7) and − 240 min (OGTT on treatment day 12). Glucose area under the curve (AUC) calculations were determined as total AUC from the sampling period of 0 to 240 min.

DPP-IV = target: T1, DPP-IV (Homo sapiens, UniProt P27487); assay: Degradation of synthetic NPY1–36 and PYY1–36 in human plasma (control samples); assay type: in vitro ADME; settings: 30 pmol peptide in 85 µl PBS + 5 µl human EDTA-plasma, 37 °C, no linagliptin, MALDI-TOF-MS
T1 construct: Human plasma was used as source of endogenous DPP-IV; from tissue; host or cells: human EDTA-plasma from healthy adult donors
Procedure: Human plasma was used as source of endogenous DPP-IV. Healthy adult individuals were enrolled after they provided written informed consent. […] Blood samples were collected from the cubital vein into blood collection tubes (EDTA-plasma). […] Plasma aliquots were transferred into 2 ml vials and stored − 80 °C. […] Parent NPY, PYY and corresponding fragments were determined by matrix-assisted laser desorption/ionization time-of-flight mass spectrometry (MALDI-TOF–MS) as described previously[34].

[6] = test system: dipeptidyl peptidase IV (DPP-IV); settings: in the circulation; inactivation by DPP-IV; cited from earlier work
Excerpt: Defective pancreatic β-cell function is a key pathological hallmark in type 2 diabetes (T2D). Because progressive loss of β-cell insulin secretory capacity is associated with worsening hyperglycemia, targeting intrinsic β-cell activity is considered essential in T2D management. A canonical role of the gut-derived incretin hormone glucagon-like peptide-1 (GLP-1) is potentiation of glucose-stimulated insulin secretion by activation of GLP-1 receptors in islet β-cells. The incretin effect is estimated to account for approximately 50–70% of total insulin secreted following oral glucose administrat ...

T1 sequence (P27487 39-766 limits assumed): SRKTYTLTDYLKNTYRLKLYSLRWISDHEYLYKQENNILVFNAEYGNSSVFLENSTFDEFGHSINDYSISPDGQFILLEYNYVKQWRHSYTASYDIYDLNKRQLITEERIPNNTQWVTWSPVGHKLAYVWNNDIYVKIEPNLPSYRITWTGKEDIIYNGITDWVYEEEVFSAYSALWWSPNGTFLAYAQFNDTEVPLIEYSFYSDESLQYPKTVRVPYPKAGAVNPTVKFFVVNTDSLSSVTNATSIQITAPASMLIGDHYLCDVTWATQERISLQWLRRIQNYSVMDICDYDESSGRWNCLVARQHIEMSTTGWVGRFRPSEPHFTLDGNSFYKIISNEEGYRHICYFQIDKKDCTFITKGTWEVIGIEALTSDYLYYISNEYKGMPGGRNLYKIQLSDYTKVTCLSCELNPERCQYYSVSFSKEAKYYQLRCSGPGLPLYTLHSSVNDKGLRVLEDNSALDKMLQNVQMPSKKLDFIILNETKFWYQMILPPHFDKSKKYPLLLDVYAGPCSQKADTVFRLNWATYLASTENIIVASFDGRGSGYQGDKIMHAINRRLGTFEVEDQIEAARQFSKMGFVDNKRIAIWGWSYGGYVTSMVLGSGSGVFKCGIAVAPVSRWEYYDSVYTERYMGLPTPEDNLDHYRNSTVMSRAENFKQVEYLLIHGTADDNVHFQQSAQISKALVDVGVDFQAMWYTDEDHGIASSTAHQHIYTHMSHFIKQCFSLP

## CC#CCn1c(N2CCC[C@@H](N)C2)nc2c1c(=O)n(Cc1nc(C)c3ccccc3n1)c(=O)n2C [linagliptin]
[1]; 14 days
  food intake: essentially unaffected
[1]; 14 days of treatment, p < 0.05
  weight loss compared to vehicle controls: 2.8%
[2]
  plasma linagliptin exposure: ~ 200 nM
[3]; day 14
  terminal plasma insulin levels: unaffected
[3]; terminal, 14 days
  plasma TNF-α concentration: significantly reduced
  plasma pancreatic polypeptide: unaffected
  plasma resistin concentration: significantly reduced
  plasma total PYY: unaffected
[4]
  food intake: did not influence food intake
[5]
  oral glucose tolerance: significantly improved glucose tolerance

## neuropeptide Y [NPY]
DPP-IV; 8 h
  fraction of NPY processed by DPP-IV: approximately two-thirds

## glucagon-like peptide-1 [GLP-1_7–36]
[6]
  circulatory half-life: approximately 1 min

## PYY: synthetic human full-length PYY1–36 used as DPP-IV substrate [peptide YY]
DPP-IV; 18 h
  fraction of PYY processed: 30%-50%
